Measured values from ChEMBL document CHEMBL3400005, “Thermodynamic equilibrium solubility measurements in simulated fluids by 96-well plate method in early drug discovery” (Bioorg Med Chem Lett, 2015).
In brackets after ≈: the same amount, converted by molar mass.

Columns and labels:
physchem [1] = settings: pH 1.2
physchem [2] = settings: pH 1.2; remark: listed apart in the source
physchem [3] = settings: pH 6.8
physchem [4] = settings: water
physchem [5] = settings: pH 7.4
physchem [6] = settings: water; remark: listed apart in the source
physchem [7] = settings: pH 6.8; remark: listed apart in the source
physchem [8] = settings: PBS, pH 7.4
physchem [9] = experiment: physchem

SMILES	solubility thermodynamic at 24 h (physchem [1]; simulated gastric fluid)	solubility thermodynamic at 4 h (physchem [2]; simulated gastric fluid)	solubility thermodynamic at 24 h (physchem [3]; simulated intestinal fluid)	solubility thermodynamic at 4 h (physchem [4])	solubility thermodynamic at 4 h (physchem [5]; PBS)	solubility thermodynamic at 24 h (physchem [6])	solubility thermodynamic at 4 h (physchem [7]; simulated intestinal fluid)	solubility thermodynamic at 24 h (physchem [8])	solubility thermodynamic (physchem [9])	solubility thermodynamic at 24 h (physchem [1]; simulated gi fluid)	solubility thermodynamic at 4 h (physchem [2]; simulated gi fluid)	solubility thermodynamic at 24 h (physchem [3]; simulated gi fluid)	solubility thermodynamic at 4 h (physchem [5]; buffer)	solubility thermodynamic at 4 h (physchem [7]; simulated gi fluid)
CCCc1nc2c(C)cc(-c3nc4ccccc4n3C)cc2n1Cc1ccc(-c2ccccc2C(=O)O)cc1	40.7 µM (≈ 21 µg/mL)	38.9 µM (≈ 20 µg/mL)	2.29 µM (≈ 1.18 µg/mL)	3.89 µM (≈ 2 µg/mL)	7.76 µM (≈ 3.99 µg/mL)	29.5 µM (≈ 15.2 µg/mL)	1.95 µM (≈ 1 µg/mL)	6.46 µM (≈ 3.32 µg/mL)	–	–	–	–	–	–
CC(C(=O)[O-])c1ccc(-c2ccccc2)c(F)c1.[Na+] (centres undefined)	–	33.1 µM	–	331 µM	162 µM	–	4.07 µM	–	–	–	–	–	–	–
CC(=O)N[C@@H](CS)C(=O)O [ACETYLCYSTEINE]	–	6.17 µM (≈ 1.01 µg/mL)	–	24.5 µM (≈ 4.01 µg/mL)	12.3 µM (≈ 2.01 µg/mL)	–	6.17 µM (≈ 1.01 µg/mL)	–	–	–	–	–	–	–
CCCSc1ccc2nc(NC(=O)OC)[nH]c2c1 [ALBENDAZOLE]	204 µM (≈ 54.2 µg/mL)	151 µM (≈ 40.2 µg/mL)	0.759 µM (≈ 0.201 µg/mL)	0.38 µM (≈ 0.101 µg/mL)	1.91 µM (≈ 0.506 µg/mL)	0.049 µM (≈ 0.013 µg/mL)	1.91 µM (≈ 0.506 µg/mL)	12.9 µM (≈ 3.42 µg/mL)	0.49 µM (≈ 0.13 µg/mL)	–	–	–	–	–
C[C@@H]1[C@H](O)[C@@H](C)/C=C/C=C/C=C/C=C/C=C/C=C/C=C/[C@H](O[C@@H]2O[C@H](C)[C@@H](O)[C@H](N)[C@@H]2O)C[C@@H]2O[C@](O)(C[C@@H](O)C[C@@H](O)[C@H](O)CC[C@@H](O)C[C@@H](O)CC(=O)O[C@H]1C)C[C@H](O)[C@H]2C(=O)O [AMPHOTERICIN B]	11.2 µM (≈ 10.4 µg/mL)	13.5 µM (≈ 12.5 µg/mL)	3.8 µM (≈ 3.51 µg/mL)	21.9 µM (≈ 20.2 µg/mL)	21.9 µM (≈ 20.2 µg/mL)	22.9 µM (≈ 21.2 µg/mL)	4.37 µM (≈ 4.03 µg/mL)	26.3 µM (≈ 24.3 µg/mL)	81.3 µM (≈ 75.1 µg/mL)	–	–	–	–	–
CC(C)(C#N)c1cc(Cn2cncn2)cc(C(C)(C)C#N)c1 [ANASTROZOLE]	0.178 µM (≈ 0.0522 µg/mL)	1.7 µM (≈ 0.498 µg/mL)	0.692 µM (≈ 0.203 µg/mL)	0.339 µM (≈ 0.0994 µg/mL)	0.339 µM (≈ 0.0994 µg/mL)	0.148 µM (≈ 0.0434 µg/mL)	1.7 µM (≈ 0.498 µg/mL)	0.105 µM (≈ 0.0307 µg/mL)	–	–	–	–	–	–
CN1C(=N)N(C)/C(=C/c2c[nH]c3ccccc23)C1=O [APLYSINOPSIN]	–	79.4 µM (≈ 20.2 µg/mL)	–	31.6 µM (≈ 8.04 µg/mL)	56.2 µM (≈ 14.3 µg/mL)	–	0.389 µM (≈ 0.0989 µg/mL)	–	–	–	–	–	–	–
CC(=O)Oc1ccccc1C(=O)O [ASPIRIN]	–	–	–	–	–	–	–	–	–	1450 µM (≈ 260 µg/mL)	3310 µM (≈ 597 µg/mL)	3.72 µM (≈ 0.669 µg/mL)	5010 µM (≈ 903 µg/mL)	2.75 µM (≈ 0.496 µg/mL)
COc1ccc2cc3[n+](cc2c1OC)CCc1cc2c(cc1-3)OCO2.[Cl-] [BERBERINE CHLORIDE]	–	33.9 µM	–	214 µM	21.4 µM	–	398 µM	–	537 µM	–	–	–	–	–
CC(C)=CC[C@H]1C[C@@]23C[C@@H](CC=C(C)C)C(C)(C)[C@@](CC=C(C)C)(C(=O)C(C(=O)c4ccc(O)c(O)c4)=C2OC1(C)C)C3=O [CAMBOGIN]	–	0.851 µM (≈ 0.513 µg/mL)	–	0.851 µM (≈ 0.513 µg/mL)	0.851 µM (≈ 0.513 µg/mL)	–	0.851 µM (≈ 0.513 µg/mL)	–	–	–	–	–	–	–
CC[C@H]1OC(=O)[C@H](C)[C@@H](O[C@H]2C[C@@](C)(OC)[C@@H](O)[C@H](C)O2)[C@H](C)[C@@H](O[C@@H]2O[C@H](C)C[C@H](N(C)C)[C@H]2O)[C@](C)(OC)C[C@@H](C)C(=O)[C@H](C)[C@@H](O)[C@]1(C)O [CLARITHROMYCIN]	–	0.676 µM (≈ 0.506 µg/mL)	–	0.676 µM (≈ 0.506 µg/mL)	0.676 µM (≈ 0.506 µg/mL)	–	1.35 µM (≈ 1.01 µg/mL)	–	0.0447 µM (≈ 0.0334 µg/mL)	–	–	–	–	–
Clc1ccccc1C(c1ccccc1)(c1ccccc1)n1ccnc1 [CLOTRIMAZOLE]	–	5.75 µM (≈ 1.98 µg/mL)	–	10 µM (≈ 3.45 µg/mL)	11.5 µM (≈ 3.96 µg/mL)	–	0.288 µM (≈ 0.0995 µg/mL)	–	–	–	–	–	–	–
CC(/C=C/C=C(\C)C(=O)O[C@@H]1O[C@H](CO[C@@H]2O[C@H](CO)[C@@H](O)[C@H](O)[C@H]2O)[C@@H](O)[C@H](O)[C@H]1O)=C\C=C\C=C(C)\C=C\C=C(/C)C(=O)O[C@@H]1O[C@H](CO[C@@H]2O[C@H](CO)[C@@H](O)[C@H](O)[C@H]2O)[C@@H](O)[C@H](O)[C@H]1O [CROCIN]	–	155 µM (≈ 151 µg/mL)	–	155 µM (≈ 151 µg/mL)	155 µM (≈ 151 µg/mL)	–	155 µM (≈ 151 µg/mL)	–	–	–	–	–	–	–
CC(=O)O[C@@]12CO[C@@H]1C[C@H](O)[C@@]1(C)C(=O)[C@H](O)C3=C(C)[C@@H](OC(=O)[C@H](O)[C@@H](NC(=O)OC(C)(C)C)c4ccccc4)C[C@@](O)([C@@H](OC(=O)c4ccccc4)[C@H]21)C3(C)C.O.O.O [DOCETAXEL]	–	0.617 µM	–	5.37 µM	2.45 µM	–	1.23 µM	–	0.871 µM	–	–	–	–	–
CCCCCCCCCCCC1=C(O)C(=O)C=C(O)C1=O [EMBELIN]	–	1.7 µM (≈ 0.5 µg/mL)	–	1.7 µM (≈ 0.5 µg/mL)	1.7 µM (≈ 0.5 µg/mL)	–	1.7 µM (≈ 0.5 µg/mL)	–	1.02 µM (≈ 0.301 µg/mL)	–	–	–	–	–

Other lines, results leading:

solubility thermodynamic at 24 h (physchem [1]; simulated gastric fluid)	solubility thermodynamic at 4 h (physchem [2]; simulated gastric fluid)	solubility thermodynamic at 24 h (physchem [3]; simulated intestinal fluid)	solubility thermodynamic at 4 h (physchem [4])	solubility thermodynamic at 4 h (physchem [5]; PBS)	solubility thermodynamic at 24 h (physchem [6])	solubility thermodynamic at 4 h (physchem [7]; simulated intestinal fluid)	solubility thermodynamic at 24 h (physchem [8])	solubility thermodynamic (physchem [9])	solubility thermodynamic at 24 h (physchem [1]; simulated gi fluid)	solubility thermodynamic at 4 h (physchem [2]; simulated gi fluid)	solubility thermodynamic at 24 h (physchem [3]; simulated gi fluid)	solubility thermodynamic at 4 h (physchem [5]; buffer)	solubility thermodynamic at 4 h (physchem [7]; simulated gi fluid)	SMILES
–	0.832 µM (≈ 0.501 µg/mL)	–	1.66 µM (≈ 1 µg/mL)	1.66 µM (≈ 1 µg/mL)	–	6.61 µM (≈ 3.98 µg/mL)	–	–	–	–	–	–	–	C=C(C)[C@@H](CC=C(C)C)C[C@@]12C[C@@H](CC=C(C)C)C(C)(C)[C@@](CC=C(C)C)(C(=O)C(C(=O)c3ccc(O)c(O)c3)=C1O)C2=O [GARCINOL]
–	589 µM (≈ 80.8 µg/mL)	–	589 µM (≈ 80.8 µg/mL)	589 µM (≈ 80.8 µg/mL)	–	288 µM (≈ 39.6 µg/mL)	–	–	–	–	–	–	–	NNC(=O)c1ccncc1 [ISONIAZID]
–	19.1 µM (≈ 8.05 µg/mL)	–	47.9 µM (≈ 20.2 µg/mL)	47.9 µM (≈ 20.2 µg/mL)	–	19.1 µM (≈ 8.05 µg/mL)	–	–	–	–	–	–	–	O=c1c2cc(O)c(O)cc2oc2cc(O)c([C@@H]3O[C@H](CO)[C@@H](O)[C@H](O)[C@H]3O)c(O)c12 [MANGIFERIN]
–	437 µM (≈ 151 µg/mL)	–	229 µM (≈ 79.1 µg/mL)	229 µM (≈ 79.1 µg/mL)	–	57.5 µM (≈ 19.9 µg/mL)	–	145 µM (≈ 49.9 µg/mL)	–	–	–	–	–	COc1ccc2[nH]c([S+]([O-])Cc3ncc(C)c(OC)c3C)nc2c1 (centres undefined) [OMEPRAZOLE]
–	43.7 µM (≈ 12.5 µg/mL)	–	70.8 µM (≈ 20.2 µg/mL)	28.2 µM (≈ 8.04 µg/mL)	–	70.8 µM (≈ 20.2 µg/mL)	–	14.1 µM (≈ 4.03 µg/mL)	–	–	–	–	–	O=C(/C=C/C=C/c1ccc2c(c1)OCO2)N1CCCCC1 [PIPERINE]
–	5620 µM (≈ 692 µg/mL)	–	5750 µM (≈ 708 µg/mL)	5370 µM (≈ 661 µg/mL)	–	7940 µM (≈ 978 µg/mL)	–	–	–	–	–	–	–	NC(=O)c1cnccn1 [PYRAZINAMIDE]
–	0.603 µM (≈ 0.504 µg/mL)	–	0.603 µM (≈ 0.504 µg/mL)	1.2 µM (≈ 1.01 µg/mL)	–	0.603 µM (≈ 0.504 µg/mL)	–	–	–	–	–	–	–	CC[C@H]1OC(=O)[C@H](C)[C@@H](O[C@H]2C[C@@](C)(OC)[C@@H](O)[C@H](C)O2)[C@H](C)[C@@H](O[C@@H]2O[C@H](C)C[C@H](N(C)C)[C@H]2O)[C@](C)(O)C[C@@H](C)/C(=N\OCOCCOC)[C@H](C)[C@@H](O)[C@]1(C)O [ROXITHROMYCIN]
–	0.851 µM (≈ 0.495 µg/mL)	–	0.851 µM (≈ 0.495 µg/mL)	0.851 µM (≈ 0.495 µg/mL)	–	0.851 µM (≈ 0.495 µg/mL)	–	–	–	–	–	–	–	[H]/N=C(/N)N[C@H]1[C@H](O)[C@@H](O)[C@H](O[C@@H]2O[C@@H](C)[C@](O)(C=O)[C@H]2O[C@@H]2O[C@@H](CO)[C@H](O)[C@@H](O)[C@@H]2NC)[C@@H](N/C(N)=N\[H])[C@@H]1O [STREPTOMYCIN]
155 µM	245 µM	0.617 µM	245 µM	0.302 µM	229 µM	1.51 µM	0.676 µM	–	–	–	–	–	–	CN(C/C=C/C#CC(C)(C)C)Cc1cccc2ccccc12.Cl [TERBINAFINE HYDROCHLORIDE]
–	162 µM (≈ 40.1 µg/mL)	–	324 µM (≈ 80 µg/mL)	603 µM (≈ 149 µg/mL)	–	324 µM (≈ 80 µg/mL)	–	–	–	–	–	–	–	CCS(=O)(=O)CCn1c([N+](=O)[O-])cnc1C [TINIDAZOLE]
